Reference: patent publication US9951060B2, “2-acylaminothiazole derivative or salt thereof” (ASTELLAS PHARMA INC., priority 2014, dated 2018)
Where a name gives a salt, the structure may show the parent alone.

Experiments:
rat isolated bladder = experiment: Test Example 3: effect on electrical field stimulation-induced contraction in rat isolated bladder; conditions: 10 μM test substance; AUC of contraction, value before treatment = 100%; SD female rat bladder
Experimental: Test Example 3: Effect on Electrical Field Stimulation-Induced Contraction in Rat Isolated Bladder
As an effect on the nerve stimulation-dependent bladder contraction in in vitro, the effect of the Example compounds of the present invention in the electrical field stimulation-induced contraction of the rat isolated bladder was measured by the following method. That is, a bladder specimen having a width of about 2 mm and a length of about 10 mm in the longitudinal direction from the bladder isolated from a Sprague-Dawley (SD) female rat (Japan SLC, Inc.) was prepared. The prepared bladder specimen was suspended in an organ bath filled with 10 mL of a Krebs-Henseleite solution. The Krebs-Henseleite solution was aerated at 95% 02 and 5% CO2, and kept at 37° C. After carrying out stabilization at an initial tension of 1 g, the contraction was caused twice with 60 mM KCl. After stabilization of the specimen with a Krebs-Henseleite solution, the contraction was caused by carrying out electrical field stimulation at 20 V with an electrical stimulation device (Nihon Kohden) (a stimulation frequency of 8 Hz, a pulse width of 0.3 msec, and a stimulation time of 10 seconds). By repeating the transmural electrical stimulation at an interval of 2 minutes, a voltage was adjusted to obtain a contraction height of approximately 50% of the contractile response at 20 V. After the contraction by electrical field stimulation had been stabilized, 10 μL of the test substances dissolved in 100% dimethyl sulfoxide in advance (final concentrations of 3 μM, 10 μM, and 30 μM) was added thereto. The test substances were cumulatively administered at the following concentrations after the low-concentration contractile response had been stabilized. The response was taken into a personal computer through a PowerLab (registered trademark) (AD Instruments, Inc.), and analyzed by LabChart (registered trademark) (AD Instruments, Inc.). When the area under the response (area under curve, AUC) in each contraction response was calculated and the value before treatment with the test substance was taken as 100%, the enhancement rate (% of pre) of the isolated bladder contractions after treatment with the test substance was calculated.

[1] = biological target: human muscarinic M3 receptor (Homo sapiens, UniProt P20309)
human muscarinic M3 receptor, sequence (P20309 whole entry): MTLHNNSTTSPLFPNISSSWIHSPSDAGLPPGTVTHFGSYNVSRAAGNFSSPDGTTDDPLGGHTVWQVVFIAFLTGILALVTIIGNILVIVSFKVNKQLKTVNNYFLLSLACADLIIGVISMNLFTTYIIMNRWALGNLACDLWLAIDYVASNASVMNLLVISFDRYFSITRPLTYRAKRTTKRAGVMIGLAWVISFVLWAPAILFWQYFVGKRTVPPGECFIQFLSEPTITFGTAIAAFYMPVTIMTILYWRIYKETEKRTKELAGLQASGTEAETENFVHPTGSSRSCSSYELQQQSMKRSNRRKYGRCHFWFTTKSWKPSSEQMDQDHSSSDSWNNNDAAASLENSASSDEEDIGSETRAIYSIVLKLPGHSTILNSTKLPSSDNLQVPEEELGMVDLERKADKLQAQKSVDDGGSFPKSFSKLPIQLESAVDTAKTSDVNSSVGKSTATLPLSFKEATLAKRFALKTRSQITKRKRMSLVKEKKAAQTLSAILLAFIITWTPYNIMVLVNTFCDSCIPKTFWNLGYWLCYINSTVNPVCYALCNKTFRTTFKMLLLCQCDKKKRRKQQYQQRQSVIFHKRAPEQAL
From the text: Test Example 1: Evaluation of Muscarinic M3 Receptor Positive Allosteric Modulator Activity
a) Construction of Vector Expressing Human Muscarinic M3 Receptor
A human muscarinic M3 receptor gene (GenBank Accession No.: NM_000740.2) was introduced into an expression vector pcDNA3.1™ (Life Technologies).
b) Construction of Cells Stably Expressing Human Muscarinic M3 Receptor
A vector expressing a human muscarinic M3 receptor was introduced into a CHO—K1 cell (ATCC No.: CCL-61). The introduction was carried out according to the attached instructions, using a transfection reagent, Lipofectoamine (registered trademark) 2000 Reagent (Life Technologies). The cells were incubated in an alpha Modified Eagle Minimum Essential Medium (α-MEM) including 2 mM glutamine, 10% fetal bovine serum, and 2.0 mg/mL Geneticin (registered trademark) (Life Technologies) for 4 weeks to acquire a drug-resistant clone.
c) Measurement of Intracellular Ca^2+ Concentration
The cells obtained in b) above were suspended in an α-MEM including 2 mM glutamine, 10% fetal bovine serum, and 0.2 mg/mL Geneticin (registered trademark) to the amount from 1.2 to 1.5×10^4 cells/well the day before the experiment, dispensed into a 384-well plate (Model No. 355962, BD Biosciences), and incubated overnight at 37° C. and 5% CO2. The medium was replaced with a loading buffer (an assay buffer (Hank's balanced salt solution (HBSS), 1 g/L BSA, 20 mM HEPES (pH 7.5), and 2.5 mM probenecid), including 3.1 μM Fluo 4-AM (Dojindo Laboratories) and incubated for about 2 hours at room temperature. Thereafter, the cells were washed with a plate washer ELx405™ (BIO-TEK Instrument, Inc.) set with the assay buffer, and set in an intracellular Ca^2+ concentration measuring system (FLIPR^tetra (registered trademark), Molecular Device Co.). The test substances (final concentration of 1 μM or 10 μM) and carbachol (Sigma, final concentration of 0.0024 nM to 10 μM) which had each been dissolved in the assay buffer in advance were set in a FLIPR^tetra (registered trademark). The test substances were added to the cells in the device and after about 5 minutes, carbachol was added to the cells. An increase rate of the intracellular Ca^2+ concentration by carbachol was measured (excitement wavelength of 470 nm to 495 nm and a fluorescence wavelength of 515 nm to 575 nm).
For the muscarinic M3 receptor-positive allosteric modulator activity, a shift toward a lower concentration side of a carbachol concentration-response curve by the test substance was used as an index. […] For example, when the EC50 value of carbachol in the absence of the test substance was 0.1 μM and the EC50 value of carbachol in the presence of the test substance was 0.01 μM, the value of the muscarinic M3 receptor-positive allosteric modulator activity becomes 10, showing that the test substance causes a 10-fold shift in the EC50 value toward to the low concentration side.

SMILES	muscarinic M3 receptor-positive allosteric modulator activity, 1 μM (-fold shift) [1]	muscarinic M3 receptor-positive allosteric modulator activity, 10 μM (-fold shift) [1]	Enhancement rate (% of pre) of isolated bladder contractions (rat isolated bladder)
C[C@@H]1CCCN1Cc1sc(NC(=O)c2cnc(N3CCN(CCC(=O)O)C[C@H]3C)cn2)nc1-c1cc(C(F)(F)F)cs1 [Example 3, 3-[(3R)-3-methyl-4-{5-[(5-{[(2R)-2-methylpyrrolidin-1-yl]methyl}-4-[4-(trifluoromethyl)thiophen-2-yl]-1,3-thiazol-2-yl)carbamoyl]pyrazin-2-yl}piperazin-1-yl]propanoic acid dihydrochloride]	101 -fold shift	253 -fold shift	152 % of pre
COc1ccc(-c2nc(NC(=O)c3cnc(N4CCN(CCC(=O)O)[C@@H](C)C4)cn3)sc2CN2CCC[C@H]2C)cc1C(F)(F)F [Example 10]	21 -fold shift	87 -fold shift	161 % of pre
C[C@@H]1CCCN1Cc1sc(NC(=O)c2cnc(N3CCN(CCC(=O)O)CC3)cn2)nc1-c1ccc(Cl)c(C(F)(F)F)c1 [Example 15]	31 -fold shift	159 -fold shift	124 % of pre
CC[C@@H]1CCCN1Cc1sc(NC(=O)c2cnc(N3CCN(CCC(=O)O)C[C@@H]3C)cn2)nc1-c1cc(Cl)cs1 [Example 28]	36 -fold shift	108 -fold shift	123 % of pre
CC[C@@H]1CCCN1Cc1sc(NC(=O)c2cnc(N3CCN(CCC(=O)O)CC3)cn2)nc1-c1ccc(OC)c(C(F)(F)F)c1 [Example 42]	39 -fold shift	141 -fold shift	158 % of pre
COc1c(Cl)cc(-c2nc(NC(=O)c3cnc(N4CCN(CCC(=O)O)CC4)cn3)sc2CN2CCC[C@H]2C)cc1Cl [Example 43]	76 -fold shift	224 -fold shift	179 % of pre
C[C@@H]1CCCN1Cc1sc(NC(=O)c2cnc(N3CCN(CCC(=O)O)CC3)cn2)nc1-c1cc(Cl)cs1 [Example 50]	108 -fold shift	190 -fold shift	183 % of pre
C[C@@H]1CCCN1Cc1sc(NC(=O)c2cnc(N3CCN(CC(=O)O)CC3)cn2)nc1-c1cc(Cl)cs1 [Example 51]	102 -fold shift	287 -fold shift	151 % of pre
C[C@@H]1CCCN1Cc1sc(NC(=O)c2cnc(N3CCN(CCC(=O)O)CC3)cn2)nc1-c1ccc(F)c(C(F)(F)F)c1 [Example 60]	33 -fold shift	235 -fold shift	144 % of pre
C[C@@H]1CCCN1Cc1sc(NC(=O)c2cnc(N3CCN(CC(=O)O)CC3)cn2)nc1-c1ccc(F)c(C(F)(F)F)c1 [Example 61]	35 -fold shift	229 -fold shift	176 % of pre
CC[C@@H]1CCCN1Cc1sc(NC(=O)c2cnc(N3CCN(CCC(=O)O)CC3)cn2)nc1-c1cccc(C(F)(F)F)c1 [Example 65]	24 -fold shift	90 -fold shift	127 % of pre
C[C@@H]1CCCN1Cc1sc(NC(=O)c2cnc(N3CCN(CCC(=O)O)CC3)cn2)nc1-c1cc(C2CC2)cc(C(F)(F)F)c1 [Example 67]	40 -fold shift	114 -fold shift	116 % of pre
COc1c(F)cc(-c2nc(NC(=O)c3cnc(N4CCN(CCC(=O)O)CC4)cn3)sc2CN2CCC[C@H]2C)cc1C(F)(F)F [Example 72]	31 -fold shift	152 -fold shift	157 % of pre
C[C@@H]1CCCN1Cc1sc(NC(=O)c2cnc(N3CCN(CCC(=O)O)CC3)cn2)nc1-c1cc(Cl)cs1 [Example 82]	11 -fold shift	43 -fold shift	158 % of pre
C[C@@H]1CCCN1Cc1sc(NC(=O)c2cnc(N3CCN(CCC(=O)O)[C@@H](C)C3)cn2)nc1-c1cc(C(F)(F)F)cs1 [Example 95]	91 -fold shift	233 -fold shift	150 % of pre
CCN(CC)Cc1sc(NC(=O)c2cnc(N3CCN(CCC(=O)O)CC3)cn2)nc1-c1cc(F)cc(C(F)(F)F)c1 [Example 109]	30 -fold shift	191 -fold shift	183 % of pre
C[C@@H]1CC[C@@H](C)N1Cc1sc(NC(=O)c2cnc(N3CCN(CCC(=O)O)CC3)cn2)nc1-c1cc(F)cc(C(F)(F)F)c1 [Example 119]	110 -fold shift	503 -fold shift	154 % of pre

The next lines start with results.

muscarinic M3 receptor-positive allosteric modulator activity, 1 μM (-fold shift) [1]	muscarinic M3 receptor-positive allosteric modulator activity, 10 μM (-fold shift) [1]	SMILES	Enhancement rate (% of pre) of isolated bladder contractions (rat isolated bladder)
33 -fold shift	226 -fold shift	C[C@@H]1CCCN1Cc1sc(NC(=O)c2cnc(N3CCN(CCC(=O)O)CC3)cn2)nc1-c1cc(Cl)cc(C(F)(F)F)c1 [Example 11]	123 % of pre
43 -fold shift	326 -fold shift	C[C@@H]1CCCN1Cc1sc(NC(=O)c2cnc(N3CCN(CC(=O)O)CC3)cn2)nc1-c1cc(Cl)cc(C(F)(F)F)c1 [Example 13]	126 % of pre
25 -fold shift	149 -fold shift	C[C@@H]1CCCN1Cc1sc(NC(=O)c2cnc(N3CCN(CCCC(=O)O)CC3)cn2)nc1-c1cc(F)cc(C(F)(F)F)c1 [Example 21]	141 % of pre
29 -fold shift	199 -fold shift	Cc1cc(OC(F)(F)F)cc(-c2nc(NC(=O)c3cnc(N4CCN(CCC(=O)O)CC4)cn3)sc2CN2CCC[C@H]2C)c1 [Example 46]	132 % of pre
27 -fold shift	113 -fold shift	Cc1cc(OC(F)(F)F)cc(-c2nc(NC(=O)c3cnc(N4CCN(C(C)C(=O)O)CC4)cn3)sc2CN2CCC[C@H]2C)c1 (stereo partly drawn) [Example 48]	143 % of pre
67 -fold shift	224 -fold shift	C[C@@H]1CCCN1Cc1sc(NC(=O)c2cnc(N3CCN(CCC(=O)O)CC3)cn2)nc1-c1cc(F)cc(C(F)(F)F)c1 [Example 49]	153 % of pre
36 -fold shift	196 -fold shift	COc1cc(-c2nc(NC(=O)c3cnc(N4CCN(CCC(=O)O)CC4)cn3)sc2CN2CCC[C@H]2C)cc(C(F)(F)F)c1 [Example 52]	132 % of pre
23 -fold shift	128 -fold shift	CC(C(=O)O)N1CCN(c2cnc(C(=O)Nc3nc(-c4cc(F)cc(C(F)(F)F)c4)c(CN4CCC[C@H]4C)s3)cn2)CC1 (stereo partly drawn) [Example 64]	162 % of pre
